Reference: patent US20260224596A1, “Phosphate Prodrugs of Cannabinoids” (Emory University, priority 2023, published 2026)
≈ marks a conversion by molar mass, not a printed value. Counter-ions that a name gives are not always drawn.

Key:
[1] = Plasma stability assay; format: in vitro ADME, human; settings: for half-life at 3 μM: read-out: T½ in human plasma; for Δ^8-THC detected in plasma: release of parent Δ^8-THC in human plasma incubation
Procedure: As used herein, the “human plasma stability, T1/2” is determined according to the procedure described in Example 10.
Procaine and Procainamide were purchased from Sigma-Aldrich. Human plasma was obtained from BioIVT (Cat. No. […]2N) and 1× Dulbecco's PBS (pH 7.4, Gibco) was obtained from Thermos Fischer. Stock solutions were prepared in 100% DMSO, and suitable dilutions of target analytes were prepared in methanol for method development.
Test compounds were dissolved in DMSO to make a stock solution of 10 mM and then diluted to 500 μM in buffer (or 70% MeOH). Human plasma was thawed at ambient temperature and is aliquoted (994.0 μL) to a 1.5 mL Eppendorf tube in duplicates (A and B) for each compound. Plasma was incubated at 37° C. for 10 minutes in an incubator shaker at 150 rpm; the reaction was initiated by the addition of the test compound (6.0 μL) and vortex mixing. The total reaction volume was 1000 μL where the final organic solvent concentrations were 0.6% MeOH and 0.03% DMSO. The spiked plasma samples were incubated at 37° C. for […]. The reactions were terminated at time points 0, 15, 30, 60, and 120 min by taking a 100 μL aliquot from the test incubation mixture and immediately quenching it in ice-cold mathanol containing internal standard (150 μL with 2 μM ISTD), followed by a quick vortex mixing. In addition, matrix blank was prepared by adding methanol solutions containing ISTD to plasma samples without any of the analytes or control compounds. Also, an additional tube was made to measure compound degradation in PBS buffer. The samples were centrifuged at 15,000 rpm for 25 min at 4° C. The supernatant was transferred to an LC-MS vial for analysis by LC/MS-MS. Each time point was run in duplicates followed by in-between blank washes to avoid the carryover and to equilibrate the column. Half-life (T1/2) was calculated using the data obtained from LC-MS/MS and by plotting ln (% remaining of the parent prodrug) versus time and performing linear regression to determine slope. Slope=−k and T1/2=0.693/k for first-order kinetics. Procaine (poor plasma stability) was used as a positive control at a final concentration of 3 μM. The positive control was run in parallel to test the systems for competency.
An exemplary experimental setup is described below. Conical polypropylene microcentrifuge tubes (1.5 mL) were labelled in duplicate for 0, 15, 30, 60, and 120 min for each compound being tested. • Example: No. of tubes prepared per Test Compound (TC): • Test compound: 994 μL human plasma+6.0 μL TC (Vial A) • 994 μL human plasma+6.0 μL TC (Vial B) • Positive control: 596 μL human plasma+3.6 μL (procaine) • Matrix blank: 500 μL PBS buffer+100 μL human plasma • Negative control: 142 μL PBS buffer+0.9 μL TC1 • Quenching mixture: 150 μL methanol with ISID (2 μM) • Final volume after quenching: 250 μL (100 μL from the incubation mixture and 150 μL from the quenching mixture; ISTD conc. 1.2 μM)

[2] = Nephelometry solubility in 1% DMSO; format: physicochemical; settings: PBS pH 7.0-7.3 with 1% DMSO, 25° C.; for solubility at 90 min: Dulbecco's phosphate-buffered saline with 1% DMSO, aqueous buffer, kinetic from dmso stock
Procedure: Nephelometry experiments were performed using untreated CORNING® COSTAR® 96-well black polystyrene plates with clear flat bottoms. Sample stock solutions and serial dilutions were prepared with DRISOLV® DMSO purchased from MilliporeSigma. […] Nephelometry data was obtained using a NEPHELOSTAR® microplate reader and processed with MARS data analysis software from BMG LabTech.
Tested compounds were dissolved in 100% DMSO to make stock solutions of specified concentrations, ranging from 10 mM minimum up to 50 mM maximum. The sample then underwent serial dilution in a 96-well plate (CORNING® COSTAR®). Well A1 of the plate contained 100% DMSO. […] Using a 12-channel multichannel pipette, 2.5 μL of sample from row A was transferred to each well in row B through row H of the plate. Next, 30 μL of PBS (pH=7.0-7.3) was added to row B through row H, providing each well with 32.5 μL. The plate was then incubated for 30 sec with shaking. Finally. 217.5 μL of PBS buffer was added to row B through row H, and the entire plate was incubated with shaking at 25° C. for 90 min. The final volume of DMSO in actual experiments with PBS buffer was 1% throughout the plate. After 90 min. the 96-well plate was analyzed with a NEPHELOSTAR® instrument and the data was processed with MARS data analysis software.

[3] = Liver microsome stability assay (HLM); format: in vitro ADME; settings: human liver microsomes, 3 μM test compound, NADPH, 0-30 min, LC-MS/MS; for half-life at 3 μM: pH 7.4, read-out: T½ in HLM
Procedure: As used herein, the “human liver microsomes stability, T1/2” is determined according to the procedure described in Example 9.
Human and mouse liver microsomes were purchased from Xenotech at 20 mg/mL. NADPH (Sigma-Aldrich) 10 mM stocks were prepared in deionized water.
Test compounds and positive controls were dissolved in 100% DMSO to make 10 mM stock solutions. Verapamil (Sigma-Aldrich) and diphenhydramine (Sigma-Aldrich) were used as positive controls for both human liver microsomes (HLM) and mouse liver microsomes (MLM). The 10 mM stock solutions of test and control compounds were further diluted in potassium phosphate buffer (100 mM, pH 7.4) to 500 μM to ensure that the organic solvent content was <0.2%. The liver microsome (HLM or MLM) assay was prepared in a 1.5 mL Eppendorf tube with a final volume of 1100 μL for duplicate runs. Each reaction contained phosphate buffer (928.4 μL), liver microsomes (55 μL), and test compound (6.6 μL of 500 μM), resulting in a final concentration of 3 μM for the test compound. The reaction was initiated with 110 μL of 10 mM NADPH. Aliquots (100 μL) were removed in duplicate at 0, 5, 10, 15, and 30 min and quenched in […] of 100% cold methanol which contained internal standard (ISTD: d5-7-ethoxy coumarin 2 μM). The aliquots were centrifuged at 12,000g for 5 min, and the supernatant was transferred and placed in an LC-MS vial. Each time point was assessed by LC-MS/MS, and the area under the m/z curve (AUC), based on the MRM transition, was integrated w.r.t the ISTD. Positive controls were conducted at a final volume of 550 μL to enable a single run for each time point. Negative controls in the absence of NADPH were performed with the test and control compounds, respectively, at a final volume of 150 μL and measured at the most prolonged time point. Control compounds were processed and analyzed like test compounds. Each time point was run in triplicates on LC-MS/MS followed by in-between blank washes to avoid the carryover and to equilibrate the column. Half-life (T1/2) was calculated using the data obtained from LC-MS/MS and by plotting ln (% remaining of the parent prodrug) versus time and performing linear regression to determine slope. Slope=−k and T1/2=0.693/k for first-order kinetics.

[4] = human plasma, 37° C., time points 0-120 min, LC-MS/MS

With `CCCCCc1cc(OC(=O)NCCCOP(=O)(O)O)c2c(c1)OC(C)(C)[C@@H]1CC=C(C)C[C@@H]21.N.N` [Compound 21b, (6aR,10aR)-6,6,9-trimethyl-3-pentyl-6a,7,10,10a-tetrahydro-6H-benzo[c]chromen-1-yl (3-(phosphonooxy)propyl)carbamate di-ammonium salt] the half-life at 3 μM [1, 4] was > 120 min, the “Δ^8-THC detected in plasma” value [1] was “Yes” and the solubility at 90 min [2] was > 500 µM. The half-life at 3 μM [3] was 12.5 min.
For `CCCCCc1cc(O)c2c(c1)OC(C)(C)[C@@H]1CC=C(C)C[C@@H]21` (relative stereo) [Δ^8-THC, (−)trans-Δ^8-THC, reference compound], the “T½ in human plasma” value [1, 4] was 1440 ± 360 min, the “Solubility in 1% DMSO” value ([2]; 90 min) was 15.93 ± 0.8 µM (≈ 5.01 µg/mL) and the “T½ in HLM” value [3] was 5.51 min.
In the case of `CCCCCc1cc(OC(=O)OCCCOP(=O)(O)O)c2c(c1)OC(C)(C)[C@@H]1CC=C(C)C[C@@H]21` [Compound 11a, 3-(phosphonooxy)propyl ((6aR,10aR)-6,6,9-trimethyl-3-pentyl-6a,7,10,10a-tetrahydro-6H-benzo[c]chromen-1-yl) carbonate di-ammonium salt], the half-life at 3 μM [3] is reported as 18.8 min.
With `CCCCCc1cc(OC(=O)CCCCOP(=O)(O)O)c2c(c1)OC(C)(C)[C@@H]1CC=C(C)C[C@@H]21.N.N` [Compound 16b, (6aR,10aR)-6,6,9-trimethyl-3-pentyl-6a,7,10,10a-tetrahydro-6H-benzo[c]chromen-1-yl 5-(phosphonooxy)pentanoate di-ammonium salt] the solubility at 90 min [2] was > 500 µM and the half-life at 3 μM [3] was 40.1 min.
In the case of `CCCCCc1cc(OC(=O)CCCOP(=O)(O)O)c2c(c1)OC(C)(C)[C@@H]1CC=C(C)C[C@@H]21.N.N` [Compound 16a, (6aR,10aR)-6,6,9-trimethyl-3-pentyl-6a,7,10,10a-tetrahydro-6H-benzo[c]chromen-1-yl 4-(phosphonooxy)butanoate di-ammonium salt], the half-life at 3 μM [1, 4] is reported as > 120 min, the “Δ^8-THC detected in plasma” value [1] is reported as “Yes” and the solubility at 90 min [2] is reported as > 500 µM. The half-life at 3 μM [3] was 51.3 min.
In the case of `CCCCCc1cc(OC(=O)NCCOP(=O)(O)O)c2c(c1)OC(C)(C)[C@@H]1CC=C(C)C[C@@H]21.N.N` [Compound 21a, (6aR,10aR)-6,6,9-trimethyl-3-pentyl-6a,7,10,10a-tetrahydro-6H-benzo[c]chromen-1-yl (2-(phosphonooxy)ethyl)carbamate di-ammonium salt], the solubility at 90 min [2] is reported as > 500 µM and the half-life at 3 μM [3] is reported as 5.6 min.
For `CCCCCc1cc(OC(=O)OCCCCOP(=O)(O)O)c2c(c1)OC(C)(C)[C@@H]1CC=C(C)C[C@@H]21.N.N` [Compound 11b, 4-(phosphonooxy)butyl ((6aR,10aR)-6,6,9-trimethyl-3-pentyl-6a,7,10,10a-tetrahydro-6H-benzo[c]chromen-1-yl) carbonate di-ammonium salt], the half-life at 3 μM [1, 4] was > 120 min, the “Δ^8-THC detected in plasma” value [1] was “Yes” and the solubility at 90 min [2] was > 500 µM. It also gave a half-life at 3 μM [3] of 17.2 min.
